Results taken from patent US10865216B2, “Tricyclic Gyrase inhibitors” (MERCK SHARP & DOHME CORP., priority 2012, dated 2020).
≈ marks a conversion by molar mass, not a printed value.

Tests used:
S. aureus ATCC 13709 = assay: MIC, S. aureus ATCC 13709; assay type: cell-based; details: Table 18, Sa
E. coli ATCC 25922 = assay: MIC, E. coli ATCC 25922; assay type: cell-based; details: Table 18, Ec

MIC Sa (S. aureus ATCC 13709) [µg/mL] | MIC Ec (E. coli ATCC 25922) [µg/mL] | SMILES
≤ 0.5 | 1 (≈ 1.99 µM) | CNc1cc(F)cc2c1[nH]c1nc(Oc3cnc4c(C(C)O)cnn4c3)nc(N3C[C@H]4C[C@@H]3C[C@H]4N)c12 (stereo partly shown) [Compound 10.55]
≤ 0.5 | ≤ 0.5 | CNc1cc(F)cc2c1[nH]c1nc(Oc3cnc4ccnn4c3)nc(N3CC4(CCC4N)C3)c12 (stereo not shown) [Compound 10.56]
≤ 0.5 | ≤ 0.5 | CNc1cc(F)cc2c1[nH]c1nc(Oc3ccc4ccnn4c3)nc(N3CC4(CCC4N)C3)c12 (stereo not shown) [Compound 10.57]
≤ 0.5 | ≤ 0.5 | CNc1cc(F)cc2c1[nH]c1nc(Oc3cnn4ccnc4c3)nc(N3C[C@H]4C[C@@H]3C[C@H]4N)c12 [Compound 10.62]
≤ 0.5 | ≤ 0.5 | CNc1cc(F)cc2c1[nH]c1nc(Oc3cnc(C(C)O)nc3)nc(N3C[C@@H]4[C@H](N)C(F)[C@@H]4C3)c12 (stereo partly shown) [Compound 10.63]
≤ 0.5 | ≤ 0.5 | CNc1cc(F)c(Cl)c2c1[nH]c1nc(Oc3cnc(C)nc3)nc(N3C[C@H]4CCN[C@H]4C3)c12 [Compound 10.64]
≤ 0.5 | ≤ 0.5 | CNc1cc(F)c(Br)c2c1[nH]c1nc(Oc3cnc(C)nc3)nc(N3C[C@H]4C[C@@H]3C[C@H]4N)c12 [Compound 10.68]
≤ 0.5 | ≤ 0.5 | CNc1cc(F)c(C#N)c2c1[nH]c1nc(Oc3cnc(C)nc3)nc(N3C[C@H]4C[C@@H]3C[C@H]4N)c12 [Compound 10.69]
≤ 0.5 | ≤ 0.5 | CNc1cc(F)cc2c1[nH]c1nc(Oc3cnc4c(c3)C(=O)OC4(C)C)nc(N3C[C@H]4C[C@@H]3C[C@H]4N)c12 [Compound 10.72]
≤ 0.5 | ≤ 0.5 | CNc1cc(F)cc2c1[nH]c1nc(Oc3cnc4c(c3)C(=O)OC4(C)C)nc(N3CC4C[C@@H](N)C4C3)c12 (stereo partly shown) [Compound 10.73]
≤ 0.5 | 1 (≈ 2.09 µM) | CNc1cc(F)cc2c1[nH]c1nc(Oc3cnc(C(C)O)nc3)nc(N3CC4(CC[C@]4(C)N)C3)c12 (stereo partly shown) [Compound 10.74]
≤ 0.5 | ≤ 0.5 | CNc1cc(F)cc2c1[nH]c1nc(Oc3ccc([C@@H](C)O)nc3)nc(N3CC4[C@H](N)CC4(C)C3)c12 (stereo partly shown) [Compound 10.76]
1 (≈ 2.09 µM) | 4 (≈ 8.36 µM) | CNc1cc(F)cc2c1[nH]c1nc(Oc3cnc(C(C)O)nc3)nc(N3C[C@H]4C[C@@H]3[C@H](C)[C@H]4N)c12 (stereo partly shown) [Compound 10.78]
≤ 0.5 | ≤ 0.5 | CNc1cc(F)cc2c1[nH]c1nc(Oc3ccc(C)nc3)nc(N3CC4CC(C)NC4C3)c12 (stereo not shown) [Compound 10.79]
≤ 0.5 | 0.5 (≈ 1.01 µM) | CNc1cc(F)c(F)c2c1[nH]c1nc(Oc3cnc(C(C)O)nc3)nc(N3CC4(CC[C@]4(C)N)C3)c12 (stereo partly shown) [Compound 10.81]
≤ 0.5 | ≤ 0.5 | CNc1cc(F)c(Cl)c2c1[nH]c1nc(Oc3cnc([C@@H](C)O)nc3)nc(N3C[C@H]4C[C@@H]3C[C@H]4N)c12 [Compound 10.87]
≤ 0.5 | ≤ 0.5 | CNc1cc(F)c(Cl)c2c1[nH]c1nc(Oc3cnc([C@@H](C)O)nc3)nc(N3CC4(CC[C@@H]4N)C3)c12 [Compound 10.88]
4 (≈ 8.45 µM) | > 16 | CNc1cc(F)cc2c1[nH]c1nc(Oc3cnc(C(C)C#N)nc3)nc(N3C[C@H]4C[C@@H]3C[C@H]4N)c12 (stereo partly shown) [Compound 10.91]
≤ 0.5 | ≤ 0.5 | CNc1cc(F)c(F)c2c1[nH]c1nc(Oc3cnc(C)nc3)nc(N3CC[C@]4(CC[C@H]4N)C3)c12 [Compound 10.92]
≤ 0.5 | ≤ 0.5 | CNc1cc(F)cc2c1[nH]c1nc(Oc3ccc4cncnc4c3)nc(N3C[C@H]4C[C@@H]3C[C@H]4N)c12 [Compound 10.96]

Second part, the compound before the results:

SMILES | MIC Sa (S. aureus ATCC 13709) [µg/mL] | MIC Ec (E. coli ATCC 25922) [µg/mL]
CNc1cc(F)cc2c1[nH]c1nc(Oc3cnc(C)nc3)nc(N3CCOCC3)c12 [Compound 10.54] | ≤ 0.5 | ≤ 0.5
CNc1cc(F)cc2c1[nH]c1nc(Oc3cnc([C@@H](C)O)nc3)nc(N3CC4(CC[C@H]4N)C3)c12 [Compound 10.59] | ≤ 0.5 | ≤ 0.5
CNc1cc(F)cc2c1[nH]c1nc(NCc3cnc(C)nc3)nc(N3C[C@H]4C[C@@H]3C[C@H]4N)c12 [Compound 10.60] | 8 (≈ 17.9 µM) | 16 (≈ 35.8 µM)
CNc1cc(F)cc2c1[nH]c1nc(Oc3cnc(C)nc3)nc(N3CC4(CC/C4=N\O)C3)c12 [Compound 10.61] | 0.03 (≈ 0.0669 µM) | 2 (≈ 4.46 µM)
CNc1cc(F)cc2c1[nH]c1nc(Oc3cnc(C)nc3)nc(N3CC4CCC4(N)C3)c12 (stereo not shown) [Compound 10.65] | ≤ 0.5 | ≤ 0.5
CNc1cc(F)c(Cl)c2c1[nH]c1nc(Oc3cnc(C)nc3)nc(N3CC4(CC[C@H]4N)C3)c12 [Compound 10.66] | ≤ 0.5 | ≤ 0.5
CNc1cc(F)c(C#N)c2c1[nH]c1nc(Oc3cnc(C)nc3)nc(N3C[C@H]4CCN[C@H]4C3)c12 [Compound 10.70] | ≤ 0.5 | ≤ 0.5
CNc1cc(F)c(C#N)c2c1[nH]c1nc(Oc3cnc(C)nc3)nc(N3CC4(CC[C@H]4N)C3)c12 [Compound 10.71] | ≤ 0.5 | ≤ 0.5
CNc1cc(F)cc2c1[nH]c1nc(Oc3cnc(C)nc3)nc(N3CCC(N)(CCC#N)C3)c12 (stereo not shown) [Compound 10.75] | ≤ 0.5 | 1 (≈ 2.17 µM)
CNc1cc(F)cc2c1[nH]c1nc(Oc3cnc(C)nc3)nc(N3CCC4(CC3)CC4CN)c12 (stereo not shown) [Compound 10.80] | 0.06 (≈ 0.13 µM) | 2 (≈ 4.32 µM)
CNc1cc(F)cc2c1[nH]c1nc(Oc3cnc(C(C)O)nc3)nc(N3CC4CC(C3)C4N)c12 (stereo not shown) [Compound 10.82] | 0.13 (≈ 0.28 µM) | 0.5 (≈ 1.08 µM)
CNc1cc(F)cc2c1[nH]c1nc(Oc3cnc4c(c3)C(=O)N(C)C4C)nc(N3CC4(CC[C@H]4N)C3)c12 (stereo partly shown) [Compound 10.83] | ≤ 0.5 | 1 (≈ 1.99 µM)
C=Cc1cc(F)cc2c1[nH]c1nc(Oc3cnc(C)nc3)nc(N3C[C@H]4C[C@@H]3C[C@H]4N)c12 [Compound 10.84] | ≤ 0.5 | ≤ 0.5
CNc1cc(F)c(Cl)c2c1[nH]c1nc(Oc3cnc4ccnn4c3)nc(N3C[C@H]4C[C@@H]3C[C@H]4N)c12 [Compound 10.85] | ≤ 0.5 | ≤ 0.5
CNc1cc(F)c(Cl)c2c1[nH]c1nc(Oc3cnc4ccnn4c3)nc(N3C[C@H]4C[C@@H](N)[C@H]4C3)c12 [Compound 10.86] | ≤ 0.5 | 0.25 (≈ 0.506 µM)
CCc1cc(F)cc2c1[nH]c1nc(Oc3cnc(C)nc3)nc(N3C[C@H]4C[C@@H]3C[C@H]4N)c12 [Compound 10.89] | ≤ 0.5 | 2 (≈ 4.61 µM)
CNc1cc(F)c(Cl)c2c1[nH]c1nc(Oc3cnc4ccnn4c3)nc(N3CC4(CC[C@]4(C)N)C3)c12 [Compound 10.90] | ≤ 0.5 | ≤ 0.5
CNc1cc(F)c(F)c2c1[nH]c1nc(Oc3cnc([C@H](C)O)nc3)nc(N3CC[C@]4(CC[C@H]4N)C3)c12 [Compound 10.93] | ≤ 0.5 | ≤ 0.5
CNc1cc(F)c(Cl)c2c1[nH]c1nc(Oc3cnc4ccnn4c3)nc(N3CC4(CC[C@@H]4N)C3)c12 [Compound 10.94] | ≤ 0.5 | ≤ 0.5
CNc1cc(F)c(F)c2c1[nH]c1nc(Oc3cnc(C(C)C#N)nc3)nc(N3C[C@H]4C[C@@H]3C[C@H]4N)c12 (stereo partly shown) [Compound 10.95] | ≤ 0.5 | ≤ 0.5
CNc1cc(F)cc2c1[nH]c1nc(Oc3ccc4cncnc4c3)nc(N3C[C@H]4C[C@@H]3C[C@H]4N)c12 [Compound 10.97] | ≤ 0.5 | 2 (≈ 4.25 µM)
